{"source": "patent US20070099821A1", "about": "“METHOD OF ACTIVATING INSULIN RECEPTOR SUBSTRATE-2 TO STIMULATE INSULIN PRODUCTION” (Sanofi-Aventis Deutschland GmbH, priority 2001, published 2007)", "key": {"K6 myoblasts": {"tested_on": "K6 myoblasts", "assay": "DNA synthesis (BrdU incorporation) in K6 myoblasts", "format": "cell-based, rat", "conditions": "serum-starved K6 myoblasts, 16 h; FCS at 10%", "method": "Effects of insulin, insulin analogs and IGF-I on the incorporation of 5-bromo-2′-deoxyuridine (BrdU) into DNA in K6 myoblasts. Myoblasts were serum-starved for 30 h in DMEM and subsequently incubated with BrdU in the absence (basal) or presence of the indicated concentrations of peptide hormones or fetal calf serum (FCS) for 16 h. Cells were fixed, denatured and the incorporation of BrdU was determined using an anti-BrdU antiserum and ECL detection. Data are mean values±SEM of four separate experiments.\nFor monitoring DNA synthesis, K6 myoblasts (1×10^4 cells/well) were seeded in 24-well microtiter tissue culture plates and were cultured for 24 h in DMEM containing 10% FCS, followed by a 30 h culture period under serum-free conditions. Cells were then stimulated with the different peptide hormones or 10% FCS for 16 h with the simultaneous addition of 5-bromo-2′-deoxyundine (BrdU). After removing the labeling mediums the cells were fixed and the DNA was denatured by addition of FixDenat (Boehringer Mannheim, Germany). Cells were then incubated with a peroxidase-conjugated anti-BrdU antiserum, and after addition of substrate the light emission was quantified on a Lumilmager work station."}, "INS-1 cells": {"tested_on": "INS-1 cells", "assay": "Cytokine-induced apoptosis in pancreatic β-cells (INS-1, nucleosomal release ELISA)", "format": "cell-based, rat", "conditions": "IL-1β + IFN-γ, 24 h, IGF-I 10 nM, mean ± SEM of 4-5 experiments", "method": "The rat insulinoma cell line INS-1 was grown in RPMI 1640 medium supplemented with 10% heat-inactivated fetal calf serum (FCS), 500 U/ml penicillin, 50 μg/ml streptomycin, 2 mmol/l glutamine and 50 μmol/l 2-mercaptoethanol and passaged by trypsinization. Functional integrity of the cells was confirmed by measuring glucose-stimulated insulin secretion. INS-1 cells were routinely seeded at 3.5×10^5 cells/well of a 12-well plate for cell death detection experiments and used on day 4 at 60-70% confluence.\nSubconfluent INS-1 cells were incubated for 2 h in RPMI 1640 medium (Eggenstein, Germany) without FCS supplemented with 0.5% BSA. After this serum free period the medium was removed and replaced with fresh RPMI 1640 containing 5% FCS and 0.5% BSA. […] The induced apoptosis was measured by the specific determination of mono- and oligonucleosomes in the cytoplasmatic fraction of cell lysates using a cell death detection ELISA kit (Roche). The assay is based on a quantitative sandwich-enzyme-immunoassay-principle using mouse monoclonal anti-histone and anti-DNA peroxidase antibodies. The relative degree of apoptotic cell death was photometrically determined by measuring the peroxidase activity of the immunocomplexes at 405 nm. […]"}}, "data": [{"substance": "IGF-I: insulin-like growth factor I, peptide hormone used as comparator", "values": [{"measurement": "Increase in BrdU-incorporation / DNA synthesis, fold", "setting": "K6 myoblasts", "result": 4, "unit": "fold"}, {"measurement": "Inhibition of cytokine-induced apoptosis", "setting": "INS-1 cells", "result": "42 ± 2", "unit": "%"}]}]}
